Reference: ChEMBL document CHEMBL1201862, “PubChem BioAssay data set” (2004)
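Grown in 96-well plates, cells were treated for 48 hours with each compound at five concentrations. Insufficient inhibition: endpoint recorded as highest concentration tested. GI50 is the concentration that inhibits growth by half.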 Active and inactive are the calls of the source. No stated cut-off is given here; in the data, active = GI50 up to about 1.1 µM and inactive = higher.

Key:
Assay in all cases: DTP human tumour cell line panel, 48 h
NCI-H522 = system: NCI-H522
NCI/ADR-RES = system: NCI/ADR-RES
Malme-3M = system: Malme-3M
A498 = system: A498
UO-31 = system: UO-31
BT-549 = system: BT-549
OVCAR-3 = system: OVCAR-3
HCC 2998 = system: HCC 2998
PC-3 = system: PC-3
OVCAR-8 = system: OVCAR-8
COLO 205 = system: COLO 205
ACHN = system: ACHN
786-0 = system: 786-0
RPMI-8226 = system: RPMI-8226
M14 = system: M14
MDA-MB-231 = system: MDA-MB-231
Hs-578T = system: Hs-578T
TK-10 = system: TK-10
HCT-15 = system: HCT-15
EKVX = system: EKVX
SF-295 = system: SF-295
MDA-MB-435 = system: MDA-MB-435
HT-29 = system: HT-29
SK-MEL-2 = system: SK-MEL-2
A549 = system: A549
SK-MEL-28 = system: SK-MEL-28
K562 = system: K562
SR = system: SR
NCI-H460 = system: NCI-H460
SN12C = system: SN12C
KM12 = system: KM12
CAKI-1 = system: CAKI-1
NCI-H23 = system: NCI-H23
MOLT-4 = system: MOLT-4
HCT-116 = system: HCT-116
SK-OV-3 = system: SK-OV-3
SW-620 = system: SW-620
UACC-257 = system: UACC-257
RXF 393 = system: RXF 393
IGROV-1 = system: IGROV-1
SF-539 = system: SF-539
T47D = system: T47D
SNB-19 = system: SNB-19
SK-MEL-5 = system: SK-MEL-5
NCI-H226 = system: NCI-H226
U-251 = system: U-251
UACC-62 = system: UACC-62
SF-268 = system: SF-268
HOP-62 = system: HOP-62
DU-145 = system: DU-145
MDA-N = system: MDA-N
LOX IMVI = system: LOX IMVI
OVCAR-5 = system: OVCAR-5
OVCAR-4 = system: OVCAR-4
HOP-92 = system: HOP-92
MCF7 = system: MCF7
CCRF-CEM = system: CCRF-CEM
SNB-75 = system: SNB-75
HL-60 = system: HL-60

`C[C@H](CCC1=NCCN1)[C@H]1CC[C@H]2[C@@H]3CC[C@@H]4C[C@H](O)CC[C@]4(C)[C@H]3CC[C@]12C` was tested, and the GI50 (NCI-H522) was 5.41 µM (inactive), the GI50 (NCI/ADR-RES) was 16.1 µM (inactive) and the GI50 (Malme-3M) was 2.44 µM (inactive). The GI50 (A498) was 14.9 µM (inactive), the GI50 (UO-31) was 14.2 µM (inactive) and the GI50 (BT-549) was 14.4 µM (inactive). The GI50 (OVCAR-3) was 0.394 µM (active), the GI50 (HCC 2998) was 5.15 µM (inactive) and the GI50 (PC-3) was 4.94 µM (inactive). For the same compound, the GI50 (OVCAR-8) was 12 µM (inactive), the GI50 (COLO 205) was 1.95 µM (inactive) and the GI50 (ACHN) was 7.91 µM (inactive). The GI50 (786-0) was 2.37 µM (inactive), the GI50 (RPMI-8226) was 3.13 µM (inactive) and the GI50 (M14) was 2.49 µM (inactive). The GI50 (MDA-MB-231) was 5.78 µM (inactive), the GI50 (Hs-578T) was 14.8 µM (inactive) and the GI50 (TK-10) was 7.74 µM (inactive). For the same compound, the GI50 (HCT-15) was 18.5 µM, the GI50 (EKVX) was 13.3 µM (inactive) and the GI50 (SF-295) was 3.4 µM (inactive). For the same compound, the GI50 (MDA-MB-435) was 4.53 µM (inactive), the GI50 (HT-29) was 0.575 µM (active) and the GI50 (SK-MEL-2) was 4.49 µM (inactive). The GI50 (A549) was 8 µM (inactive), the GI50 (SK-MEL-28) was 2.08 µM (inactive) and the GI50 (K562) was 2.49 µM (inactive). The GI50 (SR) was 2.55 µM (inactive), the GI50 (NCI-H460) was 2.91 µM (inactive) and the GI50 (SN12C) was 8.85 µM (inactive). For the same compound, the GI50 (KM12) was 7.59 µM (inactive), the GI50 (CAKI-1) was 3.51 µM (inactive) and the GI50 (NCI-H23) was 15 µM (inactive). The GI50 (MOLT-4) was 2.7 µM (inactive), the GI50 (HCT-116) was 4.72 µM (inactive) and the GI50 (SK-OV-3) was 18.8 µM (inactive). The GI50 (SW-620) was 6.84 µM (inactive), the GI50 (UACC-257) was 2.55 µM (inactive) and the GI50 (RXF 393) was 12.2 µM (inactive). For the same compound, the GI50 (IGROV-1) was 8.28 µM (inactive), the GI50 (SF-539) was 10.3 µM (inactive) and the GI50 (T47D) was 13.1 µM (inactive). For the same compound, the GI50 (SNB-19) was 13.9 µM (inactive), the GI50 (SK-MEL-5) was 1.63 µM (inactive) and the GI50 (NCI-H226) was 7.46 µM (inactive). For the same compound, the GI50 (U-251) was 6.05 µM (inactive), the GI50 (UACC-62) was 2.07 µM (inactive) and the GI50 (SF-268) was 10.6 µM (inactive). The GI50 (HOP-62) was 3.46 µM (inactive), the GI50 (DU-145) was 13.9 µM (inactive) and the GI50 (MDA-N) was 10.1 µM (inactive). For the same compound, the GI50 (LOX IMVI) was 1.95 µM (inactive), the GI50 (OVCAR-5) was 10.7 µM (inactive) and the GI50 (OVCAR-4) was 12.9 µM (inactive). For the same compound, the GI50 (HOP-92) was 3.3 µM (inactive), the GI50 (MCF7) was 6.52 µM (inactive) and the GI50 (CCRF-CEM) was 4.08 µM (inactive). The GI50 (SNB-75) was 5.07 µM (inactive).

`C=CCN1C(=O)/C(=C/c2ccc(C)cc2)NC1=S` was tested, and the GI50 (NCI-H522) was 43 µM (inactive), the GI50 (NCI/ADR-RES) was 81.7 µM (inactive) and the GI50 (A498) was 47 µM (inactive). The GI50 (UO-31) was > 100 µM (inactive), the GI50 (BT-549) was > 100 µM (inactive) and the GI50 (OVCAR-3) was > 100 µM (inactive). The GI50 (HCC 2998) was > 100 µM (inactive), the GI50 (PC-3) was > 100 µM (inactive) and the GI50 (OVCAR-8) was > 100 µM (inactive). For the same compound, the GI50 (COLO 205) was 63.5 µM (inactive), the GI50 (ACHN) was > 100 µM (inactive) and the GI50 (786-0) was > 100 µM (inactive). For the same compound, the GI50 (RPMI-8226) was 39.4 µM (inactive), the GI50 (M14) was 87.7 µM (inactive) and the GI50 (MDA-MB-231) was 60.1 µM (inactive). For the same compound, the GI50 (Hs-578T) was > 100 µM (inactive), the GI50 (TK-10) was > 100 µM (inactive) and the GI50 (HL-60) was 20 µM (inactive). For the same compound, the GI50 (HCT-15) was greater than 100 µM, the GI50 (EKVX) was 37.8 µM (inactive) and the GI50 (SF-295) was 75 µM (inactive). The GI50 (MDA-MB-435) was 76.6 µM (inactive), the GI50 (HT-29) was 96.6 µM (inactive) and the GI50 (SK-MEL-2) was > 100 µM (inactive). For the same compound, the GI50 (A549) was 76.4 µM (inactive), the GI50 (SK-MEL-28) was > 100 µM (inactive) and the GI50 (K562) was 41.9 µM (inactive). For the same compound, the GI50 (SR) was 85.9 µM (inactive), the GI50 (NCI-H460) was > 100 µM (inactive) and the GI50 (SN12C) was > 100 µM (inactive). The GI50 (KM12) was 97.7 µM (inactive), the GI50 (CAKI-1) was > 100 µM (inactive) and the GI50 (NCI-H23) was 57.5 µM (inactive). For the same compound, the GI50 (MOLT-4) was 27.1 µM (inactive), the GI50 (HCT-116) was > 100 µM (inactive) and the GI50 (SK-OV-3) was > 100 µM (inactive). For the same compound, the GI50 (SW-620) was > 100 µM (inactive), the GI50 (UACC-257) was 43.6 µM (inactive) and the GI50 (RXF 393) was > 100 µM (inactive). For the same compound, the GI50 (IGROV-1) was > 100 µM (inactive), the GI50 (SF-539) was > 100 µM (inactive) and the GI50 (T47D) was 67.1 µM (inactive). The GI50 (SNB-19) was > 100 µM (inactive), the GI50 (SK-MEL-5) was 39.6 µM (inactive) and the GI50 (NCI-H226) was 88.3 µM (inactive). The GI50 (U-251) was > 100 µM (inactive), the GI50 (UACC-62) was 60.1 µM (inactive) and the GI50 (SF-268) was > 100 µM (inactive). For the same compound, the GI50 (HOP-62) was > 100 µM (inactive), the GI50 (DU-145) was > 100 µM (inactive) and the GI50 (MDA-N) was 94.8 µM (inactive). The GI50 (LOX IMVI) was 63.2 µM (inactive), the GI50 (OVCAR-5) was > 100 µM (inactive) and the GI50 (OVCAR-4) was 57 µM (inactive). The GI50 (HOP-92) was 59.3 µM (inactive), the GI50 (MCF7) was 70.6 µM (inactive) and the GI50 (CCRF-CEM) was 33 µM (inactive). For the same compound, the GI50 (SNB-75) was > 100 µM (inactive).
